The source made the active and inactive calls.
Experiments:
[1] = test system: Mus musculus; assay: Compound was evaluated for antidepressant activity measured by tetrabenazine (TBZ) induced exploratory activity in mice after 60 mg/kg intraperitoneal administration; inactive; assay type: functional, organism-based; set-up: dose 60 mg/kg
[2] = test system: Mus musculus; assay: Compound was evaluated for antidepressant activity measured by tetrabenazine (TBZ) induced ptosis in mice after 60 mg/kg intraperitoneal administration; inactive; assay type: functional, organism-based; set-up: dose 60 mg/kg
[3] = test system: Mus musculus; assay: Antidepressant activity measured by maximal electroshock seizure threshold (MEST) assay in TBZ treated mice after ip administration; assay type: functional
[4] = test system: Mus musculus; assay: Antidepressant activity measured by maximal electroshock seizure threshold (MEST) assay in untreated mice after ip administration; assay type: functional
[5] = species on record: Mus musculus; assay: Antidepressant activity measured by effects on […] (TBZ) inhibited exploratory activity.; assay type: functional
[6] = test system: Mus musculus; assay: Antidepressant activity measured by tetrabenazine (TBZ) induced ptosis in mice after intraperitoneal administration; assay type: functional; conditions: ip
[7] = Compound was evaluated for 50% lethal dose in mice; LD50 range is 30-100; assay type: ADME, organism-based; conditions: mouse, in vivo
[8] = test system: Mus musculus; assay: Compound was evaluated for antidepressant activity measured by tetrabenazine (TBZ) induced exploratory activity in mice after 30 mg/kg intraperitoneal administration; Inactive; assay type: functional, organism-based; set-up: dose 30 mg/kg
[9] = test system: Mus musculus; assay: Compound was evaluated for antidepressant activity measured by tetrabenazine (TBZ) induced ptosis in mice after 30 mg/kg intraperitoneal administration; Inactive; assay type: functional, organism-based; set-up: dose 30 mg/kg
[10] = Compound was evaluated for 50% lethal dose in mice; LD50 range 100-300 mg/kg; assay type: ADME, organism-based; conditions: mouse, in vivo
[11] = test system: Mus musculus; assay: Compound was evaluated for antidepressant activity measured by tetrabenazine (TBZ) induced exploratory activity in mice after 30 mg/kg intraperitoneal administration; inactive; assay type: functional, organism-based; set-up: dose 30 mg/kg
[12] = test system: Mus musculus; assay: Compound was evaluated for antidepressant activity measured by tetrabenazine (TBZ) induced ptosis in mice after 30 mg/kg intraperitoneal administration; inactive; assay type: functional, organism-based; set-up: dose 30 mg/kg
[13] = test system: Mus musculus; assay: Meso form was evaluated for antidepressant activity measured by tetrabenazine (TBZ) induced exploratory activity in mice after intraperitoneal administration; assay type: functional; conditions: ip
[14] = test system: Mus musculus; assay: Meso form was evaluated for antidepressant activity measured by tetrabenazine (TBZ) induced ptosis in mice after intraperitoneal administration (Two diastereomers (7/6) were present); assay type: functional; conditions: ip
[15] = test system: Mus musculus; assay: dl form was evaluated for antidepressant activity measured by tetrabenazine (TBZ) induced exploratory activity in mice after intraperitoneal administration; assay type: functional; conditions: ip
[16] = test system: Mus musculus; assay: dl form was evaluated for antidepressant activity measured by tetrabenazine (TBZ) induced ptosis in mice after intraperitoneal administration; assay type: functional; conditions: ip
[17] = test system: Mus musculus; assay: Compound was evaluated for antidepressant activity measured by tetrabenazine (TBZ) induced exploratory activity in mice after 30 mg/kg intraperitoneal administration; assay type: functional; conditions: ip
[18] = test system: Mus musculus; assay: Compound was evaluated for antidepressant activity measured by tetrabenazine (TBZ) induced ptosis in mice after 30 mg/kg intraperitoneal administration; assay type: functional; conditions: ip
[19] = test system: Mus musculus; assay: Compound was evaluated for antidepressant activity measured by tetrabenazine (TBZ) induced ptosis in mice after 10 mg/kg intraperitoneal administration; Inactive; assay type: functional, organism-based; set-up: dose 10 mg/kg
[20] = Compound was evaluated for 50% lethal dose in mice; LD50 range is 100-300; assay type: ADME, organism-based; conditions: mouse, in vivo
[21] = test system: Mus musculus; assay: Compound was evaluated for antidepressant activity measured by tetrabenazine (TBZ) induced exploratory activity in mice after 60 mg/kg intraperitoneal administration; Inactive; assay type: functional, organism-based; set-up: dose 60 mg/kg
[22] = test system: Mus musculus; assay: Compound was evaluated for antidepressant activity measured by tetrabenazine (TBZ) induced ptosis in mice after intraperitoneal administration; Lethal at 60 Mg/kg; assay type: functional; conditions: ip
[23] = Compound was evaluated for 50% lethal dose in mice; LD50 range 30-100 mg/kg; assay type: ADME, organism-based; conditions: mouse, in vivo
[24] = Compound was evaluated for 50% lethal dose in mice; LD50 range 300-1000 mg/kg; assay type: ADME, organism-based; conditions: mouse, in vivo

Compound | ED50 [3] [mg/kg] | ED50 [4] [mg/kg] | ED50 [5] [mg/kg] | ED50 [6] [mg/kg] | other results
COc1ccc(C(CN(CCO)CCO)c2ccc(OC)cc2)cc1 |  |  |  |  | ED50 [1]: inactive; ED50 [2]: inactive
CNCC(c1ccccc1)c1ccccc1 | 9 | 8.2 | 5 | 2.3 | LD50 [7]: 30 mg/kg
COc1ccc(C(CN)c2ccc(OC)c(OC)c2)cc1OC |  |  |  |  | ED50 [1]: inactive; ED50 [2]: inactive
NCC(c1ccc(Cl)cc1)c1ccc(Cl)cc1 |  |  |  |  | ED50 [8]: inactive; ED50 [9]: inactive
OCCN(CCO)CC(c1ccccc1)c1ccccc1 | 15.4 | 20.3 |  | 2 | LD50 [10]: 300 mg/kg
OCCN(CCO)C(Cc1ccccc1)c1ccccc1 (configuration not stated) |  |  |  |  | ED50 [11]: inactive; ED50 [12]: inactive
CNCC(c1ccccc1)c1ccc(OC)c(OC)c1 (configuration not stated) |  |  | > 30 | 11 | 
CC(O)CN(CC(C)O)CC(c1ccccc1)c1ccccc1 (configuration not stated) |  |  |  |  | ED50 [13]: 18 mg/kg; ED50 [14]: 7 mg/kg; ED50 [15]: 11 mg/kg; ED50 [16]: 6 mg/kg
OCCN(CCO)CC(O)(c1ccccc1)c1ccccc1 |  |  | 80 | 8 | 
CC(N)C(c1ccccc1)c1ccccc1 (configuration not stated) |  |  | 3.5 | 3.8 | 
OCCN(CCO)CC(c1ccccc1)C1CCCCC1 (configuration not stated) |  |  | ~50 | 22 | 
OCCN(CCO)CC(c1cccs1)c1cccs1 |  |  |  |  | ED50 [11]: inactive; ED50 [12]: inactive
CNCC(c1ccc(Cl)cc1)c1ccc(Cl)cc1 |  |  |  |  | ED50 [17]: 14 mg/kg; ED50 [18]: 13 mg/kg
NCC(c1ccccc1)c1ccccc1 | > 15 | 10 | 1.8 | 1.7 | LD50 [7]: 30 mg/kg
NCC(F)(c1ccccc1)c1ccccc1 |  |  |  |  | ED50 [8]: inactive; ED50 [19]: inactive
CN(C)CCCN1c2ccccc2CCc2ccccc21 [IMIPRAMINE] | 14.9 | 20.3 | 1.3 | 0.9 | 
c1ccc2c(c1)cc1n2CCCNC1 [AZEPINDOLE] | 32 | 46 | 11 | 9 | LD50 [20]: 100 mg/kg
COc1ccc(C(CN(C)C)c2ccccc2)cc1OC (configuration not stated) |  |  |  | 14 | ED50 [11]: inactive
CCN(CCO)CCC(c1ccccc1)c1ccccc1 | 21.4 | > 25 | 10 | 1.9 | LD50 [10]: 300 mg/kg
CCNCCC(c1ccccc1)c1ccccc1 |  |  | 15 | 23 | 
COc1ccc(C(CN)c2ccc(OC)cc2)cc1 |  |  |  |  | ED50 [21]: inactive; ED50 [22]: > 10 mg/kg
COc1ccc(C(CN(CCO)CCO)c2ccc(OC)c(OC)c2)cc1OC |  |  |  |  | ED50 [1]: inactive; ED50 [2]: inactive
CC(=O)OCCN(CCOC(C)=O)CC(c1ccccc1)c1ccccc1 |  |  | 23 | 13 | 
CN(C)CC(c1ccccc1)c1ccccc1 | 3 | 7 | 9 | 2.5 | LD50 [7]: 100 mg/kg
COc1ccc(C(CN(CCO)CCO)c2ccccc2)cc1OC (configuration not stated) |  |  |  |  | ED50 [1]: inactive; ED50 [2]: inactive
OCCN(CCO)CCC(c1ccccc1)c1ccccc1 |  |  | 24 | 20 | 
COc1ccc(C(CN)c2ccccc2)cc1OC (configuration not stated) |  |  |  |  | ED50 [11]: inactive; ED50 [12]: inactive
CN(C)CC(c1ccc(Cl)cc1)c1ccc(Cl)cc1 |  |  | 11 | 16 | 
NCC(O)(c1ccccc1)c1ccccc1 | 9.9 | 8.1 | 9 | 6 | LD50 [23]: 100 mg/kg
OCCN(CCO)CCc1ccccc1 | > 50 | > 50 | 17 | 12 | LD50 [24]: 1000 mg/kg
